# Measured values from PubChem BioAssay (NCI).
#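 A five-concentration, 48-hour dose response in 96-well plates underlies each endpoint, interpolated linearly between surrounding concentrations. Here, GI50 denotes the concentration required for 50% inhibition of growth. TGI is the concentration that stops growth completely.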
# Key:
# Assay in all cases: growth of human tumour cells (NCI), 48 h
# OVCAR-5 ovarian = system: OVCAR-5 ovarian
# MALME-3M melanoma = system: MALME-3M melanoma
# SNB-75 CNS = system: SNB-75 CNS
# PC-3 prostate = system: PC-3 prostate
# SR leukemia = system: SR leukemia
# UACC-62 melanoma = system: UACC-62 melanoma
# OVCAR-3 ovarian = system: OVCAR-3 ovarian
# MDA-MB-231 breast = system: MDA-MB-231 breast
SMILES,GI50 (OVCAR-5 ovarian),TGI (OVCAR-5 ovarian),GI50 (MALME-3M melanoma),TGI (MALME-3M melanoma),GI50 (SNB-75 CNS),TGI (SNB-75 CNS),GI50 (PC-3 prostate),TGI (PC-3 prostate),GI50 (SR leukemia),TGI (SR leukemia),GI50 (UACC-62 melanoma),TGI (UACC-62 melanoma),GI50 (OVCAR-3 ovarian),TGI (OVCAR-3 ovarian),GI50 (MDA-MB-231 breast),TGI (MDA-MB-231 breast)
Cc1nc2cncc(C#Cc3cncc(C(=O)Nc4ccc(CN5CCN(C)CC5)c(C(F)(F)F)c4)c3)c2nc1C,0.608 µM,17.5 µM,0.146 µM,0.623 µM,0.854 µM,3.34 µM,1.51 µM,12.2 µM,0.46 µM,3.81 µM,0.24 µM,1.47 µM,0.899 µM,6.54 µM,0.229 µM,1.03 µM
C=C(C)C(=O)OC1CC2(C)OC2CC(OC(C)=O)/C(C)=C/C2OC(=O)C(=C)C21 (configuration not stated),–,17.5 µM,–,3.23 µM,–,42.3 µM,–,22.5 µM,–,4.47 µM,–,17.8 µM,–,7.96 µM,–,18.5 µM
COc1cc2c(c(OC)c1OC)-c1ccc(NNC(=S)N(Cc3cccc(C[N+](Cc4cccc(CNC56CC7CC(CC(C7)C5)C6)c4)(Cc4cccc(CNC56CC7CC(CC(C7)C5)C6)c4)Cc4cccc(CN(C(=S)NNc5ccc6c(cc5=O)[C@@H](NC(C)=O)CCc5cc(OC)c(OC)c(OC)c5-6)C56CC7CC(CC(C7)C5)C6)c4)c3)C34CC5CC(CC(C5)C3)C4)c(=O)cc1[C@@H](NC(C)=O)CC2 (some centres not stated),1.17 µM,5.03 µM,0.83 µM,3.04 µM,1.4 µM,6.68 µM,1.45 µM,5.64 µM,–,–,1.61 µM,6.38 µM,1.66 µM,6.53 µM,0.994 µM,2.99 µM
Nc1c(C(=O)c2cccc(-c3ccc[n+]([O-])c3)c2)cnn1-c1ccc(F)cc1F,> 25 µM,> 25 µM,> 25 µM,> 25 µM,> 25 µM,> 25 µM,> 25 µM,> 25 µM,17.8 µM,> 25 µM,> 25 µM,> 25 µM,> 25 µM,> 25 µM,> 25 µM,> 25 µM
Nc1ccc(-c2nc3ccccc3[nH]2)c(O)c1,36.4 µM,> 100 µM,–,–,87.2 µM,> 100 µM,23.9 µM,> 100 µM,26.2 µM,> 100 µM,25.2 µM,95.5 µM,40.4 µM,> 100 µM,17 µM,47.3 µM
c1cc(C2CCCCC2)ccc1OCCCCCCN1CCNCC1,1.75 µM,3.5 µM,1.99 µM,3.86 µM,1.83 µM,4.5 µM,2.15 µM,5.97 µM,–,–,1.86 µM,3.81 µM,1.82 µM,3.57 µM,1.61 µM,3.29 µM
Nc1ccc(N=Nc2ccccc2)c(N)n1,40.3 µM,> 100 µM,48.5 µM,> 100 µM,–,–,21.7 µM,> 100 µM,18.1 µM,> 100 µM,32.6 µM,> 100 µM,20.2 µM,67.9 µM,18 µM,73.7 µM
OCc1cccc(-c2ccc3ncc(-c4nc(NC5CC5)ncc4F)n3c2)c1,–,–,0.375 µM,1.06 µM,0.199 µM,0.453 µM,0.314 µM,3.23 µM,0.0541 µM,> 38.9 µM,0.248 µM,0.698 µM,0.27 µM,1.09 µM,0.286 µM,1.04 µM
NC1C2C(CC(=O)O)OCC=C3CN4CCC1(C(=O)C(=O)O)C4CC32 (configuration not stated),–,> 100 µM,–,> 100 µM,–,> 100 µM,–,> 100 µM,–,> 100 µM,–,> 100 µM,–,> 100 µM,–,> 100 µM
CNc1nc(C)c(-c2nc(Nc3cccc(S(N)(=O)=O)c3)ncc2F)s1,0.0324 µM,15.1 µM,0.0797 µM,0.187 µM,0.044 µM,0.147 µM,0.0388 µM,1.27 µM,0.0171 µM,1.15 µM,0.0224 µM,0.0741 µM,0.0302 µM,14.4 µM,0.0416 µM,5.98 µM
O=CN1N=C(c2ccc(Nc3ccnc4cc(Cl)ccc34)cc2)CC1c1ccccc1 (configuration not stated),19.8 µM,> 100 µM,4.21 µM,> 100 µM,5.03 µM,> 100 µM,4.76 µM,> 100 µM,1.77 µM,4.9 µM,1.55 µM,4.16 µM,2.78 µM,7.71 µM,2.43 µM,13.7 µM
COc1ccc(C2=CC(c3cc(OC)c(OC)c(OC)c3)NC(=O)N2)cc1OC (configuration not stated),2.28 µM,6.42 µM,5.06 µM,21.1 µM,2.42 µM,7.95 µM,10.2 µM,> 100 µM,2.11 µM,10.4 µM,4.31 µM,16.8 µM,2.13 µM,5.05 µM,2.84 µM,8.04 µM
Nc1nc2c(c3ncccc13)C(c1ccc(Cl)c(Cl)c1)Cc1ncccc1-2 (configuration not stated),6.51 µM,24.2 µM,8.94 µM,26.3 µM,1.85 µM,6.6 µM,3.4 µM,15.5 µM,2.46 µM,13 µM,2.28 µM,12.5 µM,2.59 µM,7.63 µM,4.05 µM,17.1 µM
CNC(=O)c1c(NC(=O)c2cccc(C(F)(F)F)c2)sc2c1CCC(=O)C2,0.465 µM,2.73 µM,0.373 µM,2.28 µM,0.575 µM,5.27 µM,0.139 µM,1.19 µM,0.191 µM,> 100 µM,0.414 µM,2.14 µM,0.448 µM,2.04 µM,0.332 µM,1.88 µM
COc1cc2c(cc1OCCCOC1=C=C=C(c3ccc4c(c3)c3cc(-c5ccc(OCCCOc6cc7c(cc6OC)C(=O)N6CCC[C@H]6C=N7)cc5)ccc3n4S(=O)(=O)c3ccc(C)cc3)C=C1)N=C[C@@H]1CCCN1C2=O,5.87 µM,17.8 µM,3.26 µM,10.2 µM,1.03 µM,5.33 µM,1.27 µM,> 28.9 µM,–,–,1.89 µM,8.76 µM,0.959 µM,2.23 µM,5.31 µM,16 µM
